According to patent US20230399341A1, “7-PHENYL SUBSTITUTED 2-AMINOQUINAZOLINE INHIBITORS OF HPK1” (MERCK SHARP & DOHME LLC, priority 2020, published 2023):

Molecular target: T1, Human HPK1, catalytic domain (Homo sapiens, UniProt Q92918)
T1 sequence (Q92918 1-346): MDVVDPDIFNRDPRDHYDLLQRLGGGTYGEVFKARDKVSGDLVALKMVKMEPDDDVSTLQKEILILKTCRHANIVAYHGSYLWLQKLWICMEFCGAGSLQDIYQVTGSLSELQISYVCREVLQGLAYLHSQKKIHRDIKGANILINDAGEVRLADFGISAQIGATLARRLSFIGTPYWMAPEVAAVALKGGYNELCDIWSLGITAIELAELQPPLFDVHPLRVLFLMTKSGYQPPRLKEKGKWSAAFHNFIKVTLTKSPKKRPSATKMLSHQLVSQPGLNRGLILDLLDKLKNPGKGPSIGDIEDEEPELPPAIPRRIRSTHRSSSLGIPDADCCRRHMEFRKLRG
Assay: HPK1-SLP76 TR-FRET Assay
Format: biochemical
Settings: 75 pM HPK1, ATP 10 uM, SLP76 10 nM, 30 min pre-incubation, 60 min reaction

Row | SMILES | IC50
1 | COc1cc2c(cc1Nc1ncc3ccc(-c4ccc(NC(C)=O)nc4)cc3n1)CNCC2 [Compound 1-30, N-(5-{2-[(6-methoxy-1,2,3,4-tetahydroisoquinolin-7-yl)amino]quinazolin-7-yl}pyridin-2-yl)acetamide] | 45.5 nM
2 | COc1cc2c(cc1Nc1ncc3ccc(-c4ccc(CC#N)cc4)cc3n1)CNCC2 [Compound 1-64, (4-{2-[(6-methoxy-1,2,3,4-tetrahydroisoquinolin-7-yl)amino]quinazolin-7-yl}phenyl)acetonitrile] | 82 nM
3 | COc1cc2c(cc1Nc1ncc3ccc(-c4cncc(N5CCNCC5)c4)cc3n1)CNCC2 [Compound 1-50, N-(6-methoxy-1,2,3,4-tetrahydroisoquinolin-7-yl)-7-[5-(piperazin-1-yl)pyridin-3-yl]quinazolin-2-amine] | 5.9 nM
4 | COc1cncc(-c2ccc3cnc(Nc4cc5c(cc4OC)CCN(C)C5)nc3c2)c1 [Compound 1-17, N-(6-methoxy-2-methyl-1,2,3,4-tetrahydroisoquinolin-7-yl)-7-(5-methoxypyridin-3-yl)quinazolin-2-amine] | 19.1 nM
5 | COc1cc2c(cc1Nc1ncc3ccc(-c4cncc(C)c4)cc3n1)CNCC2 [Compound 1-41, N-(6-methoxy-1,2,3,4-tetrahydroisoquinolin-7-yl)-7-(5-methylpyridin-3-yl)quinazolin-2-amine] | 9.67 nM
6 | COc1cc2c(cc1Nc1ncc3ccc(-c4cc(S(=O)(=O)N(C)C)ccc4C)cc3n1)CNCC2 [Compound 1-79, 3-{2-[(6-methoxy-1,2,3,4-tetrahydroisoquinolin-7-yl)amino]quinazolin-7-yl}-N,N,4-trimethylbenzene-1-sulfonamide] | 148 nM
7 | COc1cc2c(cc1Nc1ncc3ccc(-c4cc(N)ccc4C)cc3n1)CNCC2 [Compound 1-93, 7-(5-amino-2-methylphenyl)-N-(6-methoxy-1,2,3,4-tetrahydroisoquinolin-7-yl)quinazolin-2-amine] | 481 nM
8 | COc1cc2c(cc1Nc1ncc3ccc(-c4ccc5c(c4)OCO5)cc3n1)CNCC2 [Compound 1-71, 7-(2H-1,3-benzodioxol-5-yl)-N-(6-methoxy-1,2,3,4-tetrahydroisoquinolin-7-yl)quinazolin-2-amine] | 138 nM
9 | COc1cc2c(cc1Nc1ncc3ccc(-c4cnccc4C)cc3n1)CN(C)CC2 [Compound 1-2, N-(6-methoxy-2-methyl-1,2,3,4-tetrahydroisoquinolin-7-yl)-7-(4-methylpyridin-3-yl)quinazolin-2-amine] | 26.2 nM

Results, then the molecule that gave them:

Row | IC50 | SMILES
10 | 0.0849 nM | Cc1c(-c2cc3nc(Nc4ccc5c(c4)CCS5(=O)=O)ncc3c(N)c2F)cnc2c1NCCO2 [Compound 2-43, 5-{[5-amino-6-fluoro-7-(8-methyl-2,3-dihydro-1H-pyrido[2,3-b][1,4]oxazin-7-yl)quinazolin-2-yl]amino}-2,3-dihydro-1H-1-benzothiophene-1,1-dione]
11 | 1.05 nM | CCC1COC(=O)N1c1ccc2cnc(Nc3cc4c(cc3OC)CCN(C)C4)nc2c1 (single isomer, unassigned) [Compound 3-13, (S or R)-4-ethyl-3-{2-[(6-methoxy-2-methyl-1,2,3,4-tetrahydroisoquinolin-7-yl)amino]quinazolin-7-yl}-1,3-oxazolidin-2-one]
12 | 47 nM | Cc1c(-c2c(F)c(N)c3cnc(Nc4ccc(N5CCOC5=O)cc4)nc3c2Cl)cnc2c1NCCO2 [Compound 2-159]
13 | 100 nM | COc1nc(C2(C#N)CC2)ccc1Nc1ncc2c(N)c(F)c(-c3cnc4c(c3C)NCCO4)c(Cl)c2n1 [Compound 2-181, (+ or −)-1-(5-{[5-amino-8-chloro-6-fluoro-7-(8-methyl-2,3-dihydro-1H-pyrido[2,3-b][1,4]oxazin-7-yl)quinazolin-2-ylamino}-6-methoxypyridin-2-yl)cyclopropane-1-carbonitrile]
14 | 0.0508 nM | Cc1c(-c2cc3nc(Nc4ccc5c(c4)CN(C)CC5)ncc3c(N)c2F)cnc2c1NCCO2 [Compound 2-70, 6-fluoro-7-(8-methyl-2,3-dihydro-1H-pyrido[2,3-b][1,4]oxazin-7-yl)-N˜2˜-(2-methyl-1,2,3,4-tetrahydroisoquinolin-7-yl)quinazoline-2,5-diamine]
15 | 46.8 nM | COc1cc2c(cc1Nc1ncc3ccc(NCc4ccc5c(c4)S(=O)(=O)N=C(C)N5)cc3n1)CN(C)CC2 [Compound 3-25, 7-[({2-[(6-methoxy-2-methyl-1,2,3,4-tetrahydroisoquinolin-7-yl)amino]quinazolin-7-yl}-amino)methyl]-3-methyl-1lambda~6~,2,4-benzothia-diazine-1,1(4H)-dione]
16 | 46.3 nM | COc1cc2c(cc1Nc1ncc3ccc(Nc4ccc5c(c4)C(=O)N(C)C5)cc3n1)CN(C)CC2 [Compound 3-23, 6-({2-[(6-methoxy-2-methyl-1,2,3,4-tetrahydroisoquinolin-7-yl)amino]quinazolin-7-yl}-amino)-2-methyl-2,3-dihydro-1H-isoindol-1-one]
17 | 5.76 nM | COc1cc2c(cc1Nc1ncc3c(N)c(F)c(-c4cnc5c(c4C)NCCO5)c(Cl)c3n1)CN(C(C)C)CC2 [Compound 2-106, (+ or −)-8-chloro-6-fluoro-N2-(2-isopropyl-6-methoxy-1,2,3,4-tetrahydroisoquinolin-7-yl)-7-(8-methyl-2,3-dihydro-1H-pyrido[2,3-b][1,4]oxazin-7-yl)quinazoline-2,5-diamine]
18 | 0.0248 nM | Cc1c(-c2c(F)c(N)c3cnc(Nc4ccc5c(c4)CN(C)CC5)nc3c2Cl)cnc2c1NCCO2 (single isomer, unassigned) [Compound 2-180, (+ or −)-8-chloro-6-fluoro-7-(8-methyl-2,3-dihydro-1H-pyrido[2,3-b][1,4]oxazin-7-yl)-N~2~- (2-methyl-1,2,3,4-tetrahydroisoquinolin-7-yl)quinazoline-2,5-diamine]
19 | 0.129 nM | Cc1c(-c2cc3nc(Nc4cccnc4)ncc3c(N)c2F)cnc2c1NCCO2 [Compound 2-9, 6-fluoro-7-(8-methyl-2,3-dihydro-1H-pyrido[2,3-b][1,4]oxazin-7-yl)-N~2~- (pyridin-3-yl)quinazoline-2,5-diamine]
20 | 4.08 nM | COc1cc(C)ccc1Nc1ncc2c(N)c(F)c(-c3cnc4c(c3C)NCCO4)cc2n1 [Compound 2-177, 6-fluoro-N~2~-(2-methoxy-4-methylphenyl)-7-(8-methyl-2,3-dihydro-1H-pyrido[2,3-b][1,4]oxazin-7-yl)quinazoline-2,5-diamine]
21 | 0.101 nM | COc1cc2c(cc1Nc1ncc3c(N)c(F)c(-c4cnc5c(c4C)NCCO5)cc3n1)C(C)N(C)CC2 (single isomer, unassigned) [Compound 2-36, (S or R)-6-fluoro-N^2-(6-methoxy-1,2-dimethyl-1,2,3,4-tetrahydroisoquinolin-7-yl)-7-(8-methyl-2,3-dihydro-1H-pyrido[2,3-b][1,4]oxazin-7-yl)quinazoline-2,5-diamine]
22 | 520 nM | COCC1CN(c2ccc3cnc(Nc4cc5c(cc4OC)CCN(C)C5)nc3c2)C1 [Compound 3-68, 7-[3-(methoxymethyl)azetidin-1-yl]-N-(6-methoxy-2-methyl-1,2,3,4-tetrahydroisoquinolin-7-yl)quinazolin-2-amine]
23 | 0.232 nM | CCS(=O)(=O)Cc1ccc(Nc2ncc3c(N)c(F)c(-c4cnc5c(c4C)NCC(C)(C)O5)cc3n2)c(F)c1 [Compound 2-144, N~2~-{4-[(ethylsulfonyl)methyl]-2-fluorophenyl}-6-fluoro-7-(3,3,8-trimethyl-2,3-dihydro-1H-pyrido[2,3-b][1,4]oxazin-7-yl)quinazoline-2,5-diamine]
